Consider 21 molecules from patent publication US10125134B2 (Mirati Therapeutics, Inc., priority 2016, dated 2018).

Experiment [1] has as its system NCI-H358 cells (express KRas G12C), Phospho-ERK. Nature of the experiment: Cellular inhibition of KRas G12C: Phospho-ERK in NCI-H358 cells. The settings on record: Homo sapiens. The experiment is classed as cell-based. An outline of the steps: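 IC50 derived by 4-parameter fit of GAPDH-normalized pERK(Thr202/Tyr204) signal, as percent of DMSO control. Signal came from in-cell immunodetection with infrared secondaries after 3 h compound exposure of KRas G12C NCI-H358 cells at 0.5% DMSO.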

The target of another experiment is KRas G12C (Homo sapiens, UniProt P01116, C118S/C51S/C80L/G12C). Kind of experiment: KRas G12C Modification Assay (LCMS detection of covalent adduct). The experiment is classed as binding. In a few lines: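 Cys-light KRas G12C mutant protein incubated with compound in K-Ras assay buffer, reactions quenched at set time points with 25 mM acetic acid and analysed by intact-protein LC/MS on a C-3 column. Deconvoluted mass heights expressed as percent of control (POC) relative to compound-free protein.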

[2] abbreviates: NCI-H358, 3 h, pERK(Thr202/Tyr204) normalized with GAPDH, NCI-H358 cells, 3 hours, read-out: IC50.
Where [3] appears, read: normalized percent of control, tested at 5 μM concentration for 3 hours.
[4] abbreviates: pERK(Thr202/Tyr204) normalized with GAPDH, NCI-H358 cells, 3 hours, read-out: IC50.

The term IC50 denotes the concentration at which inhibition is half-maximal.

Read-outs that look alike come from different tables or passages of the source.

In experiment [1] (NCI-H358, 3 h), `C=CC(=O)N1CCN(c2nc(OCCN(C)C)nc3c2CCN(c2cc(O)cc4ccccc24)C3)CC1CCO` (stereo not drawn) [Example 171, 1-(4-(2-(2-(dimethylamino)ethoxy)-7-(3-hydroxynaphthalen-1-yl)-5,6,7,8-tetrahydropyrido[3,4-d]pyrimidin-4-yl)-2-(2-hydroxyethyl)piperazin-1-yl)prop-2-en-1-one] returned an IC50 of more than 1000 nM. For the same molecule, on KRas G12C (5 µM), the POC entry was “C (key: “A”≤25% POC; “B”>25% POC−≤50% POC; “C”>50% POC)”.

On to `C=CC(=O)N1CCN(c2nc(OCCN(C)C)nc3c2CCN(c2cc(O)cc4ccccc24)C3)C(CCO)C1` (stereo not drawn) [Example 172, 1-(4-(2-(2-(dimethylamino)ethoxy)-7-(3-hydroxynaphthalen-1-yl)-5,6,7,8-tetrahydropyrido[3,4-d]pyrimidin-4-yl)-3-(2-hydroxyethyl)piperazin-1-yl)prop-2-en-1-one], for which, in experiment [1] (setting [2]), the IC50 is more than 1000 nM. Further, the POC result at KRas G12C (setting [3]) is listed as “C (“C”>50% POC)”.

As to `C=CC(=O)N1CCN(c2nc(OCCCN3CCOCC3)nc3c2CCN(c2c(C)c(O)cc4ccccc24)C3)CC1` [Example 173, 1-(4-(7-(3-hydroxy-2-methylnaphthalen-1-yl)-2-(3-morpholinopropoxy)-5,6,7,8-tetrahydropyrido[3,4-d]pyrimidin-4-yl)piperazin-1-yl)prop-2-en-1-one], the IC50 in experiment [1] (setting [4]) was more than 1000 nM. At KRas G12C (setting [3]), the POC entry was “C (“C”>50% POC)”.

For `C=CC(=O)N1CCN(c2nc(OC[C@H]3CCC(C)(C)N3)nc3c2CCN(c2cc(O)cc4ccccc24)C3)CC1` [Example 174, (R)-1-(4-(2-((5,5-dimethylpyrrolidin-2-yl)methoxy)-7-(3-hydroxynaphthalen-1-yl)-5,6,7,8-tetrahydropyrido[3,4-d]pyrimidin-4-yl)piperazin-1-yl)prop-2-en-1-one], in experiment [1] (setting [2]), the IC50 was more than 1000 nM. In addition, the POC entry at KRas G12C (setting [3]) is “C (“C”>50% POC)”.

For the molecule `C=CC(=O)N1CCN(c2nc(OC[C@@H]3CCCN3C)nc3c2CCN(c2c(C)c(O)cc4ccccc24)C3)CC1` [Example 175, (S)-1-(4-(7-(3-hydroxy-2-methylnaphthalen-1-yl)-2-((1-methylpyrrolidin-2-yl)methoxy)-5,6,7,8-tetrahydropyrido[3,4-d]pyrimidin-4-yl)piperazin-1-yl)prop-2-en-1-one], the 50% inhibitory concentration (IC50) in experiment [1] (setting [4]) lay in the range of 0.1 to 1000 nM. Besides, the POC entry on KRas G12C (setting [3]) is given as “C (“C”>50% POC)”.

For `C=CC(=O)N1CCN(c2nc(OCCN(C)C)nc3c2CCN(c2cc(O)cc4ccccc24)C3)C[C@@H]1CC#N` [Example 176, 2-[(2S)-4-[2-[2-(dimethylamino)ethoxy]-7-(3-hydroxy-1-naphthyl)-6,8-dihydro-5H-pyrido[3,4-d]pyrimidin-4-yl]-1-prop-2-enoyl-piperazin-2-yl]acetonitrile], the IC50 in experiment [1] (setting [2]) was 0.1 to 1000 nM. On KRas G12C (setting [3]), the POC entry is “C (“C”>50% POC)”.

With `C=CC(=O)N1CCN(c2nc(OC[C@@H]3CCN(C)C3)nc3c2CCN(c2cccc4ccccc24)C3)CC1CC#N` (stereo partly drawn) [Example 177, 2-[4-[2-[[(3R)-1-methylpyrrolidin-3-yl]methoxy]-7-(1-naphthyl)-6,8-dihydro-5H-pyrido[3,4-d]pyrimidin-4-yl]-1-prop-2-enoyl-piperazin-2-yl]acetonitrile], the IC50 in experiment [1] (setting [4]) lay in the range of 0.1 to 1000 nM. For the same molecule, on KRas G12C (setting [3]), the POC entry is given as “C (“C”>50% POC)”.

Turning to `C=CC(=O)N1CCN(c2nc(OC[C@H]3CCCN3C)nc3c2CCN(c2cc(O)cc4ccccc24)C3)CC1CC#N` (stereo partly drawn) [Example 178, 2-[4-[7-(3-hydroxy-1-naphthyl)-2-[[(2R)-1-methylpyrrolidin-2-yl]methoxy]-6,8-dihydro-5H-pyrido[3,4-d]pyrimidin-4-yl]-1-prop-2-enoyl-piperazin-2-yl]acetonitrile], the half-inhibitory concentration (IC50) in experiment [1] (setting [2]) lay within 0.1 to 1000 nM. In addition, at KRas G12C (setting [3]), the POC entry is “C (“C”>50% POC)”.

As for `C=CC(=O)N1CCN(c2nc(OC[C@@H]3CCN(C)C3)nc3c2CCN(c2cc(O)cc4ccccc24)C3)CC1CC#N` (stereo partly drawn) [Example 179, 2-[4-[7-(3-hydroxy-1-naphthyl)-2-[[(3R)-1-methylpyrrolidin-3-yl]methoxy]-6,8-dihydro-5H-pyrido[3,4-d]pyrimidin-4-yl]-1-prop-2-enoyl-piperazin-2-yl]acetonitrile], in experiment [1] (setting [2]), the IC50 fell in the range of 0.1 to 1000 nM. Further, the POC entry at KRas G12C (setting [3]) is “C (“C”>50% POC)”.

`C=CC(=O)N1CCN(c2nc(OCCCN3CCOCC3)nc3c2CCN(c2c(C(F)(F)F)ccc4[nH]ncc24)C3)CC1` [Example 180, 1-[4-[2-(3-morpholinopropoxy)-7-[5-(trifluoromethyl)-1H-indazol-4-yl]-6,8-dihydro-5H-pyrido[3,4-d]pyrimidin-4-yl]piperazin-1-yl]prop-2-en-1-one]: the IC50 in experiment [1] (setting [4]) lay within 0.1 to 1000 nM. In addition, the POC entry at KRas G12C (setting [3]) is “C (“C”>50% POC)”.

For `C=CC(=O)N1CCN(c2nc(OCCCN3C[C@@H]4C[C@H]3CO4)nc3c2CCN(c2c(C)ccc4[nH]ncc24)C3)CC1` [Example 181, 1-(4-(2-(3-((1 S,4S)-2-oxa-5-azabicyclo[2.2.1]heptan-5-yl)propoxy)-7-(5-methyl-1H-indazol-4-yl)-5,6,7,8-tetrahydropyrido[3,4-d]pyrimidin-4-yl)piperazin-1-yl)prop-2-en-1-one], in experiment [1] (setting [4]), the IC50 is more than 1000 nM. At KRas G12C (setting [3]), the POC result is “C (“C”>50% POC)”.

As to `C=CC(=O)N1CCN(c2nc(OC[C@@H]3CCCN3C)nc3c2CCN(c2cc(O)cc4ccccc24)C3)CC1CC#N` (stereo partly drawn) [Example 182, 2-[4-[7-(3-hydroxy-1-naphthyl)-2-[[(2S)-1-methylpyrrolidin-2-yl]methoxy]-6,8-dihydro-5H-pyrido[3,4-d]pyrimidin-4-yl]-1-prop-2-enoyl-piperazin-2-yl]acetonitrile], in experiment [1] (setting [4]), the IC50 lay within 0.1 to 1000 nM. At KRas G12C (setting [3]), the POC entry is listed as “C (“C”>50% POC)”.

`C=CC(=O)N1CCN(c2nc(OC[C@H]3CCCN3C)nc3c2CCN(c2cccc4ccccc24)C3)CC1CC#N` (stereo partly drawn) [Example 183, 2-[4-[2-[[(2R)-1-methylpyrrolidin-2-yl]methoxy]-7-(1-naphthyl)-6,8-dihydro-5H-pyrido[3,4-d]pyrimidin-4-yl]-1-prop-2-enoyl-piperazin-2-yl]acetonitrile]: the 50% inhibitory concentration (IC50) in experiment [1] (setting [4]) was 0.1 to 1000 nM. The POC entry at KRas G12C (setting [3]) is “C (“C”>50% POC)”.

On to `C=CC(=O)N1CCN(c2nc(OCCCO)nc3c2CCN(c2cc(O)cc4ccccc24)C3)CC1` [Example 184, 1-[4-[7-(3-hydroxy-1-naphthyl)-2-(3-hydroxypropoxy)-6,8-dihydro-5H-pyrido[3,4-d]pyrimidin-4-yl]piperazin-1-yl]prop-2-en-1-one], for which the IC50 in experiment [1] (setting [2]) was more than 1000 nM. For the same molecule, the POC result on KRas G12C (setting [3]) is reported as “C (“C”>50% POC)”.

On to `C=CC(=O)N1CCN(c2nc(-c3cccc(CN4CCOCC4)c3)nc3c2CCN(c2cc(O)cc4ccccc24)C3)CC1` [Example 186], for which the IC50 in experiment [1] (setting [4]) was more than 1000 nM. Further, at KRas G12C (setting [3]), the POC result is on record as “B (“B”>25% POC−≤50% POC)”.

Take `C=CC(=O)N1CCN(c2nc(OC[C@H]3CCN(C)C3)nc3c2CCN(c2cc(O)cc4ccccc24)C3)CC1` [Example 188, (S)-1-(4-(7-(3-hydroxynaphthalen-1-yl)-2-((1-methylpyrrolidin-3-yl)methoxy)-5,6,7,8-tetrahydropyrido[3,4-d]pyrimidin-4-yl)piperazin-1-yl)prop-2-en-1-one]: in experiment [1] (setting [2]), the IC50 is 0.1 to 1000 nM. Also, the POC result on KRas G12C (setting [3]) is “C (“C”>50% POC)”.

On to `C=CC(=O)N1CCN(c2nc(OCC3CCN(Cc4ccccc4)C3)nc3c2CCN(c2cc(O)cc4ccccc24)C3)CC1` (stereo not drawn) [Example 189, 1-(4-(2-((1-benzylpyrrolidin-3-yl)methoxy)-7-(3-hydroxynaphthalen-1-yl)-5,6,7,8-tetrahydropyrido[3,4-d]pyrimidin-4-yl)piperazin-1-yl)prop-2-en-1-one], for which, in experiment [1] (setting [2]), the IC50 was more than 1000 nM. The POC entry at KRas G12C (setting [3]) is listed as “C (“C”>50% POC)”.

Turning to `C=CC(=O)N1CCN(c2nc(OCC3CCN(C4CC4)C3)nc3c2CCN(c2cc(O)cc4ccccc24)C3)CC1` (stereo not drawn) [Example 190, 1-(4-(2-((1-cyclopropylpyrrolidin-3-yl)methoxy)-7-(3-hydroxynaphthalen-1-yl)-5,6,7,8-tetrahydropyrido[3,4-d]pyrimidin-4-yl)piperazin-1-yl)prop-2-en-1-one], the IC50 in experiment [1] (setting [2]) lay within 0.1 to 1000 nM. The POC entry on KRas G12C (setting [3]) is “C (“C”>50% POC)”.

As for `C=CC(=O)N1[C@H](C)CN(c2nc(OCCCN3CCOCC3)nc3c2CCN(c2cc(O)cc4ccccc24)C3)C[C@@H]1C` [Example 191, 1-((2S,6R)-4-(7-(3-hydroxynaphthalen-1-yl)-2-(3-morpholinopropoxy)-5,6,7,8-tetrahydropyrido[3,4-d]pyrimidin-4-yl)-2,6-dimethylpiperazin-1-yl)prop-2-en-1-one], the IC50 in experiment [1] (setting [4]) was more than 1000 nM. Also, the POC result at KRas G12C (setting [3]) is on record as “C (“C”>50% POC)”.

Regarding `C=CC(=O)N1CCN(c2nc(OC[C@@H]3CCCN(C)C3)nc3c2CCN(c2cc(O)cc4ccccc24)C3)CC1` [Example 192, (R)-1-(4-(7-(3-hydroxynaphthalen-1-yl)-2-((1-methylpiperidin-3-yl)methoxy)-5,6,7,8-tetrahydropyrido[3,4-d]pyrimidin-4-yl)piperazin-1-yl)prop-2-en-1-one], in experiment [1] (setting [2]), the IC50 lay within 0.1 to 1000 nM. The POC result at KRas G12C (setting [3]) is reported as “C (“C”>50% POC)”.

For `C=CC(=O)N1CCN(c2nc(OCC3CN(C)CCO3)nc3c2CCN(c2cc(O)cc4ccccc24)C3)CC1` (stereo not drawn) [Example 193, 1-(4-(7-(3-hydroxynaphthalen-1-yl)-2-((4-methylmorpholin-2-yl)methoxy)-5,6,7,8-tetrahydropyrido[3,4-d]pyrimidin-4-yl)piperazin-1-yl)prop-2-en-1-one], the IC50 in experiment [1] (setting [2]) lay within 0.1 to 1000 nM. For the same molecule, on KRas G12C (setting [3]), the POC entry is “C (“C”>50% POC)”.
